The results in this text go back to US20040023972A1, “Use of substituted imidazo[1,2-a]-pyridin-, -pyrimidin-and-pyrazin-3-yl-amine derivatives in the preparation of medicaments for inhibiting NOS” (Gruenenthal GmbH, priority 2000, published 2004).

As a reminder, the inhibition is the drop in the measured response relative to a control, in per cent.

The test has as its target T1, NO synthase (Rattus norvegicus, UniProt P29476).
T1 construct: the supernatant was then removed by decantation and frozen in portions at −80° C; from tissue; host or cells: rat cerebellum, 20,000 g supernatant of homogenate
Kind of test: HTS-NOS assay (NOS assay): conversion of radioactive arginine, cation-exchanger filter plate. It counts as biochemical. The note with it: for inhibition at 10 µM: read-out: HTS-NOS assay: % inhibition (10 μM). In a few lines: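 Rat cerebellum supernatant as NOS source, incubated with radiolabelled arginine plus cofactors including NADPH at 25 °C for 5-60 min depending on enzyme activity. Unconverted arginine was trapped on a cation-exchange filter plate, citrulline washed out, and bound arginine counted by scintillation; % inhibition versus no-compound reactions.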

With `Cc1ccn2c(NC(C)(C)CC(C)(C)C)c(-c3ccoc3)nc2c1.Cl` [Example 311, (2-Furan-3-yl-7-methyl-imidazo[1,2-a]pyridin-3-yl)-(1,1,3,3-tetramethyl-butyl)-amine hydrochloride], the “NOS assay % inhibition” value (Table 5, concentration not given) came to 45%. Take `CC(=O)N(c1c(-c2ccc(C(=O)O)o2)nc2cc(C)ccn12)C(C)(C)C` [Example 201, 5-[3-(acetyl-tert-butyl-amino)-7-methyl-imidazo[1,2-a]pyridin-2-yl]-furan-2-carboxylic acid]: the inhibition at 10 µM was 54%. Turning to `CC(=O)N(c1c(C)cccc1C)c1c(-c2cccc(Cl)c2Cl)nc2cc(C)cc(C)n12` [Example 169, N-[2-(2,3-dichloro-phenyl)-5,7-dimethyl-imidazo[1,2-a]pyridin-3-yl]-N-(2,6-dimethyl-phenyl)-acetamide], the inhibition at 10 µM worked out at 57%. For the compound `Cc1cc(C)n2c(Nc3c(C)cccc3C)c(-c3cc4ccccc4o3)nc2c1` [Example 57, (2-Benzofuran-2-yl-5,7-dimethyl-imidazo[1,2-a]pyridin-3-yl)-(2,6-dimethyl-phenyl)-amine], the inhibition at 10 µM was determined as 57%. As for `Cc1cc(C)n2c(NC3CCCCC3)c(C3CCCCC3)nc2c1` [Example 77, Cyclohexyl-(2-cyclohexyl-5,7-dimethyl-imidazo[1,2-a]pyridin-3-yl)-amine], the inhibition at 10 µM is 63%. With `Cc1cccn2c(NC(C)(C)CC(C)(C)C)c(-c3cc4ccccc4o3)nc12` [Example 115, (2-Benzofuran-2-yl-8-methyl-imidazo[1,2-a]pyridin-3-yl)-(1,1,3,3-tetramethyl-butyl)-amine], the inhibition at 10 µM turned out to be 59%. `CCCCNc1c(-c2cccc(O)c2)nc2cc(C)cc(C)n12` [Example 73, 3-(3-Butylamino-5,7-dimethyl-imidazo[1,2-a]pyridin-2-yl)-phenol]: the inhibition at 10 µM was found to be 61%. Turning to `[C-]#[N+]CCCCCCNc1c(-c2ccccc2F)nc2cc(C)cc(C)n12` [Example 116, {6-[2-(2-Fluoro-phenyl)-5,7-dimethyl-imidazo[1,2-a]pyridin-3-ylamino]-hexyl}-methylidyne-ammonium], the “HTS-NOS assay: % inhibition (10 μM)” value is 60%. As for `CCCCNc1c(-c2ccccc2OC)nc2cc(C)ccn12` [Example 60, Butyl-[2-(2-methoxy-phenyl)-7-methyl-imidazo[1,2-a]pyridin-3-yl]-amine], the inhibition at 10 µM came to 52%.

Regarding `Cc1cc(C)n2c(NC(C)(C)CC(C)(C)C)c(-c3ccco3)nc2c1` [Example 8, (2-Furan-2-yl-5,7-dimethyl-imidazo[1,2-a]-pyridin-3-yl)-(1,1,3,3-tetramethyl-butyl)-amine], the inhibition at 10 µM turned out to be 52%. On to `CC(=O)OCc1ccc(-c2nc3cc(C)cc(C)n3c2N(C(C)=O)C2CCCCC2)o1` [Example 158, acetic acid 5-[3-(acetyl-cyclohexyl-amino)-5,7-dimethyl-imidazo[1,2-a]pyridin-2-yl]-furan-2-yl methyl ester], for which the “HTS-NOS assay: % inhibition (10 μM)” value came out at 54%. Take `CC(=O)N(c1c(-c2ccco2)nc2cc(C)ccn12)C(C)(C)CC(C)(C)C` [Example 149, N-(2-furan-2-yl-7-methyl-imidazo[1,2-a]pyridin-3-yl)-N-(1,1,3,3-tetramethylbutyl)-acetamide]: the inhibition at 10 µM was 55%.

Consider `Cc1ccn2c(NC(C)(C)CC(C)(C)C)c(-c3cccc4ccccc34)nc2c1` [Example 63, (7-Methyl-2-naphthalen-1-yl-imidazo[1,2-a]-pyridin-3-yl)-(1,1,3,3-tetramethyl-butyl)-amine], for which the inhibition at 10 µM was determined as 52%. Same read-out and setting: then `Cc1ccn2c(NC(C)(C)C)c(-c3ccc(C(=O)O)s3)nc2c1` [Example 110, 5-(3-Tert-butylamino-7-methyl-imidazo[1,2-a]pyridin-2-yl)-thiophene-2-carboxylic acid], with 61%. As for `CC(=O)N(c1c(-c2cc3ccccc3o2)nc2cc(C)cc(C)n12)C(C)(C)CC(C)(C)C` [Example 217, N-(2-benzofuran-2-yl-5,7-dimethyl-imidazo[1,2-a]pyridin-3-yl)-N-(1,1,3,3-tetramethyl-butyl)-acetamide], the inhibition at 10 µM was determined as 63%. Take `CCc1ccn2c(Nc3cccc(Cl)c3)c(-c3cc4ccccc4o3)nc2c1` [Example 319, (2-Benzofuran-2-yl-7-ethyl-imidazo[1,2-a]-pyridin-3-yl)-(3-chloro-phenyl)-amine]: the inhibition at 10 µM was 53%. For `CC(=O)N(c1c(C)cccc1C)c1c(-c2ccccc2C(F)(F)F)nc2ccc(C)cn12` [Example 261, N-(2,6-dimethyl-phenyl)-N-[6-methyl-2-(2-trifluorO-methyl-phenyl)-imidazo[1,2-a]pyridin-3-yl]-acetamide], the “HTS-NOS assay: % inhibition (10 μM)” value was found to be 61%. As for `CC(=O)N(c1c(-c2cc(C)c(C)o2)nc2ccc(C)cn12)C(C)(C)C` [Example 268, N-tert-butyl-N-[2-(4,5-dimethyl-furan-2-yl)-6-methyl-imidazo[1,2-a]pyridin-3-yl]-acetamide], the inhibition at 10 µM turned out to be 51%. On to `C#[N+]CCCCCCNc1c(-c2ccccc2C)nc2cc(C)cc(C)n12` [Example 106, [6-(5,7-Dimethyl-2-o-tolyl-imidazo[1,2-a]-pyridin-3-ylamino)-hexyl]-methylidyne-ammonium], for which the “HTS-NOS assay: % inhibition (10 μM)” value was determined as 60%.

For `CC(=O)N(c1c(-c2cccnc2)nc2cc(C)ccn12)C(C)(C)C` [Example 144, N-tert-butyl-N-(7-methyl-2-pyridin-3-yl-imidazo[1,2-a]pyridin-3-yl)-acetamide], the inhibition at 10 µM worked out at 59%.

As for `CCc1ccn2c(NCc3ccccc3Cl)c(-c3ccc([N+](=O)[O-])o3)nc2c1` [Example 314, (2-Chlorobenzyl)-[7-ethyl-2-(5-nitro-furan-2-yl)-imidazo[1,2-a]pyridin-3-yl]-amine], the inhibition at 10 µM was 47%. The same measure, in the same setting: then `CC(=O)N(c1c(-c2ccc(C)o2)nc2ccccn12)C(C)(C)CC(C)(C)C` [Example 200, N-[2-(5-methyl-furan-2-yl)-imidazo[1,2-a]pyridin-3-yl]-N-(1,1,3,3-tetramethylbutyl)-acetamide], with 58%; and `Cc1ccc2nc(-c3ccc(Cl)cc3Cl)c(Nc3c(C)cccc3C)n2c1` [Example 134, [2-(2,4-Dichlorophenyl)-6-methyl-imidazo[1,2-a]pyridin-3-yl]-(2,6-dimethyl-phenyl)-amine], with 56%; and `Cc1cc(C)n2c(NC(C)(C)CC(C)(C)C)c(-c3ccc(Cl)cc3Cl)nc2c1` [Example 89, [2-(2,4-Dichlorophenyl)-5,7-dimethyl-imidazo[1,2-a]pyridin-3-yl]-(1,1,3,3-tetramethyl-butyl)-amine], with 68%. Regarding `CC(=O)N(c1c(-c2ccc([N+](=O)[O-])o2)nc2cc(C)ccn12)C1CCCCC1` [Example 178, N-cyclohexyl-N-[7-methyl-2-(5-nitro-furan-2-yl)-imidazo[1,2-a]pyridin-3-yl]-acetamide], the inhibition at 10 µM was determined as 64%. Consider `CC(=O)N(c1c(-c2sccc2Br)nc2ccc(C)cn12)C1CCCCC1` [Example 224, N-[2-(3-bromo-thiophen-2-yl)-6-methyl-imidazo[1,2-a]pyridin-3-yl]-N-cyclohexyl-acetamide], for which the inhibition at 10 µM stood at 53%.

Take `CCCCN(C(C)=O)c1c(-c2cccc(OC)c2OC)nc2cc(C)cc(C)n12` [Example 171, N-butyl-N-[2-(2,3-dimethoxy-phenyl)-5,7-dimethyl-imidazo[1,2-a]pyridin-3-yl]-acetamide]: the inhibition at 10 µM was determined as 63%. As for `CC(=O)N(c1c(-c2ccc(C)cc2)nc2cc(C)ccn12)C(C)(C)CC(C)(C)C` [Example 185, N-(7-methyl-2-p-tolyl-imidazo[1,2-a]pyridin-3-yl)-N-(1,1,3,3-tetramethyl-butyl)-acetamide], the inhibition at 10 µM is 55%. On the same count and under the same terms, then `Cc1ccn2c(NC(C)(C)CC(C)(C)C)c(-c3ccc(-c4ccccc4Cl)o3)nc2c1` [Example 80, {2-[5-(2-Chlorophenyl)-furan-2-yl]-7-methyl-imidazo[1,2-a]pyridin-3-yl}-(1,1,3,3-tetramethyl-butyl)-amine], with 52%; and `CCCCNc1c(-c2cccc(O)c2)nc2cc(C)ccn12` [Example 55, 3-(3-Butylamino-7-methyl-imidazo[1,2-a]-pyridin-2-yl)-phenol], with 63%; and `CC(=O)N(c1c(-c2cccs2)nc2c(Cl)cc(Cl)cn12)C(C)(C)C` [Example 277, N-tert-butyl-N-(6,8-dichloro-2-thiophen-2-yl-imidazo[1,2-a]pyridin-3-yl)-acetamide], with 53%. Take `CC(=O)OCc1ccc(-c2nc3cc(C)ccn3c2NC2CCCCC2)o1` [Example 58, Acetic acid 5-(3-cyclohexylamino-7-methyl-imidazo[1,2-a]pyridin-2-yl)-furan-2-yl methyl ester]: the “HTS-NOS assay: % inhibition (10 μM)” value is on record as 64%. Still for that read-out and setting: to `CC(=O)OCc1ccc(-c2nc3cc(C)cc(C)n3c2NC2CCCCC2)o1` [Example 52, Acetic acid 5-(3-cyclohexylamino-5,7-dimethyl-imidazo[1,2-a]pyridin-2-yl)-furan-2-yl methyl ester] belongs 64%. Consider `Cc1cc(C)n2c(NC(C)(C)CC(C)(C)C)c(-c3ccc(CO)o3)nc2c1` [Example 62, {5-[5,7-Dimethyl-3-(1,1,3,3-tetramethyl-butylamino)-imidazo[1,2-a]pyridin-2-yl]-furan-2-yl}-methanol], for which the inhibition at 10 µM came out at 55%. With `CC(=O)N(c1c(C)nc2cc(C)ccn12)C(C)(C)CC(C)(C)C` [Example 250, N-(2,7-dimethyl-imidazo[1,2-a]pyridin-3-yl)-N-(1,1,3,3-tetramethyl-butyl)-acetamide], the inhibition at 10 µM is 58%. As to `CC(=O)N(c1c(-c2cc3ccccc3o2)nc2c(C)cccn12)C(C)(C)CC(C)(C)C` [Example 286, N-(2-benzofuran-2-yl-8-methyl-imidazo[1,2-a]pyridin-3-yl)-N-(1,1,3,3-tetramethyl-butyl)-acetamide], the inhibition at 10 µM amounted to 59%.
